Each block holds one compound with its values, some of them ahead of it.
Assays:
[1] = test system: carp; conditions: in vivo
Description: (§1) The data in FIG. 8 leads to several conclusions. […] Importantly, members of both the ‘A’ and ‘SP’ AA groups are NOT considered to be physiologically significant. […] Thus, as a direct consequence, it is strongly inferred that only AAs belonging to the ‘B’ and ‘LN’ groups are physiologically significant with regard to the fishes' ability to detect forage via the recognition of solvated AAs.

[2] = physiological pH; cited from earlier work
[3] = test system: carp; assay: Stimulatory response (average feeding time/fish) to VAL/LYS solutions, FIG. 8; format: in vivo
Description: FIG. 8 is a graph showing stimulatory response as a function of composition for mixtures of L-Valine (V) and L-Lysine (K).
The relationship between stimulatory response (as determined through average feeding time/fish) and AA ratio for a variety of net equimolar mixtures comprised of VAL (V) and LYS (K), as well as reference solutions containing the respective individual AAs is shown in FIG. 8.
as §1

- physiological distress on exposure [1]: signs of physiological distress
Compound: NC(=O)CC[C@H](N)C(=O)O [GLU, glutamine]

Compound: N[C@@H](Cc1c[nH]cn1)C(=O)O [L-Histidine]
- fraction protonated [2]: approximately 10%

Compound: NCCCC[C@H](N)C(=O)O [LYS, L-Lysine]
- stimulatory response (average feeding time/fish) ([3]; net equimolar VAL/LYS mixtures and 0.5% single AA reference solutions): significantly enhanced stimulatory response

- physiological distress on exposure [1]: signs of physiological distress
Compound: N[C@@H](CO)C(=O)O [SER, serine]

Compound: CC(C)[C@H](N)C(=O)O [VAL, L-Valine]
- stimulatory response relative to that observed for a similar strength LYS solution ([3]; similar concentration (0.5%) solution): approximately 50%

From patent US20120177779A1, “FISH FEEDING STIMULANT AND PRODUCT” (priority 2008, published 2012)
